Measured values taken from PubChem BioAssay AID248 (DTP/NCI, 2004).
Inconclusive results and toxic doses are left out. Rule as the data show it: active = T/C of 150% or more; inactive = T/C below 125%. Square brackets hold non-standard residues; d marks the D form. Peptide text beside a SMILES is read from it. ξ: configuration not given here. ξF = NC(Cc1ccccc1)C(=O)O

System: L1210 leukemia ip in BDF1 mice, survival T/C
Assay: NCI In Vivo Anticancer Drug Screen. Data for tumor model L1210 Leukemia (intraperitoneal) in B6D2F1 (BDF1) mice
Conditions: endpoint: mean survival time, higher = longer survival
Procedure, shortened: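 Tumor cells were implanted, animals were treated, and survival was followed. The result divides the treated measurement by the vehicle-control measurement.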

[1] = dose: 50.0 mg/kg/injection, schedule: Q01DX009 (ip), vehicle: Klucel (hydroxypropylcellulose) (HPC)
[2] = dose: 100.0 mg/kg/injection, schedule: Q01DX009 (ip), vehicle: Klucel (hydroxypropylcellulose) (HPC)
[3] = dose: 100.0 mg/kg/injection, schedule: Q04DX002 (ip), vehicle: saline
[4] = dose: 200.0 mg/kg/injection, schedule: Q04DX002 (ip), vehicle: saline
[5] = dose: 400.0 mg/kg/injection, schedule: Q04DX002 (ip), vehicle: saline
[6] = dose: 25.0 mg/kg/injection, schedule: Q01DX009 (ip), vehicle: Klucel (hydroxypropylcellulose) (HPC)

Measured: T/C

O=C(O)C1(NC2CCCCC2)CCCCC1
inactive: dose: 5.0 mg/kg/injection, schedule: Q01DX Z (ip), vehicle: methylcellulose (MC) 104 % of control | dose: 10.0 mg/kg/injection, schedule: Q01DX Z (ip), vehicle: methylcellulose (MC) 114 % of control | dose: 20.0 mg/kg/injection, schedule: Q01DX Z (ip), vehicle: methylcellulose (MC) 99 % of control | dose: 40.0 mg/kg/injection, schedule: Q01DX Z (ip), vehicle: methylcellulose (MC) 100 % of control | dose: 80.0 mg/kg/injection, schedule: Q01DX Z (ip), vehicle: methylcellulose (MC) 99 % of control

CCOC(=O)c1c[nH]c2c(ccc3cc(OC)ccc32)c1=O
inactive: [1] 101 % of control | [2] 97 % of control | dose: 200.0 mg/kg/injection, schedule: Q01DX009 (ip), vehicle: Klucel (hydroxypropylcellulose) (HPC) 97 % of control

C/C=C/[N+]([O-])=NC(C)CCCCCC (centres undefined)
inactive: [3] 105 % of control | [4] 97 % of control | [5] 94 % of control

Fc1c(F)c(Oc2c(F)c(F)c(C(F)(F)F)c(F)c2F)c(F)c(Oc2c(F)c(F)c(C(F)(F)F)c(F)c2F)c1F
inactive: dose: 100.0 mg/kg/injection, schedule: Q01DX001 (ip), vehicle: Klucel (hydroxypropylcellulose) (HPC) 96 % of control | dose: 100.0 mg/kg/injection, schedule: Q04DX003 (ip), vehicle: Klucel (hydroxypropylcellulose) (HPC) 98 % of control | dose: 200.0 mg/kg/injection, schedule: Q01DX001 (ip), vehicle: Klucel (hydroxypropylcellulose) (HPC) 100 % of control | dose: 200.0 mg/kg/injection, schedule: Q04DX003 (ip), vehicle: Klucel (hydroxypropylcellulose) (HPC) 95 % of control | dose: 400.0 mg/kg/injection, schedule: Q01DX001 (ip), vehicle: Klucel (hydroxypropylcellulose) (HPC) 89 % of control | dose: 400.0 mg/kg/injection, schedule: Q04DX003 (ip), vehicle: Klucel (hydroxypropylcellulose) (HPC) 97 % of control

Cc1cccc(N2C(=O)C3C(C2=O)C2(Cl)C(Cl)=C(Cl)C3(Cl)C2(Cl)Cl)c1C (centres undefined)
inactive: dose: 3.0 mg/kg/injection, schedule: Q01DX009 (ip), vehicle: Klucel (hydroxypropylcellulose) (HPC) 96 % of control | dose: 6.0 mg/kg/injection, schedule: Q01DX009 (ip), vehicle: Klucel (hydroxypropylcellulose) (HPC) 102 % of control | dose: 12.5 mg/kg/injection, schedule: Q01DX009 (ip), vehicle: Klucel (hydroxypropylcellulose) (HPC) 111 % of control | [6] 107 % of control | [1] 103 % of control

CSC1=NCCS1
inactive: [6] 97 % of control | [1] 102 % of control | [2] 105 % of control | dose: 100.0 mg/kg/injection, schedule: Q01DX009 (ip), vehicle: carboxymethylcellulose (CMC) 111 % of control | dose: 200.0 mg/kg/injection, schedule: Q01DX009 (ip), vehicle: carboxymethylcellulose (CMC) 101 % of control

NC(Cc1ccccc1)C(=O)NCC(=O)NCC(=O)O (stereo not drawn) (H-[ξF]-Gly-Gly-OH)
inactive: dose: 100.0 mg/kg/injection, schedule: Q01DX009 (ip), vehicle: saline with Tween-80 107 % of control | dose: 100.0 mg/kg/injection, schedule: Q04DX003 (ip), vehicle: saline with Tween-80 102 % of control | dose: 200.0 mg/kg/injection, schedule: Q01DX009 (ip), vehicle: saline with Tween-80 91 % of control | dose: 200.0 mg/kg/injection, schedule: Q04DX003 (ip), vehicle: saline with Tween-80 104 % of control | dose: 400.0 mg/kg/injection, schedule: Q01DX009 (ip), vehicle: saline with Tween-80 89 % of control | dose: 400.0 mg/kg/injection, schedule: Q04DX003 (ip), vehicle: saline with Tween-80 98 % of control

CC(C)(C)NC(=O)NCCCN1CCOCC1
inactive: [3] 96 % of control | [4] 90 % of control | [5] 96 % of control

O=P(c1ccccc1)(c1ccccc1)C1(O)CCCCC1Cl (centres undefined)
inactive: dose: 100.0 mg/kg/injection, schedule: Q01DX001 (ip), vehicle: saline 105 % of control | dose: 200.0 mg/kg/injection, schedule: Q01DX001 (ip), vehicle: saline 96 % of control | dose: 400.0 mg/kg/injection, schedule: Q01DX001 (ip), vehicle: saline 100 % of control

CCC(C)(C)c1ccc(O)c(C(=O)O)c1
inactive: dose: 100.0 mg/kg/injection, schedule: Q01DX001 (ip), vehicle: carboxymethylcellulose (CMC) 90 % of control | dose: 200.0 mg/kg/injection, schedule: Q01DX001 (ip), vehicle: carboxymethylcellulose (CMC) 95 % of control

CCCCCCCCCCCCSC(SCCCCCCCCCCCC)SCCCCCCCCCCCC
inactive: dose: 100.0 mg/kg/injection, schedule: Q01DX001 (ip), vehicle: other 95 % of control | dose: 200.0 mg/kg/injection, schedule: Q01DX001 (ip), vehicle: other 106 % of control | dose: 400.0 mg/kg/injection, schedule: Q01DX001 (ip), vehicle: other 95 % of control
